Data as given in PMC4374918, “Interaction of ATP with a Small Heat Shock Protein from Mycobacterium leprae: Effect on Its Structure and Function” (PLoS Neglected Tropical Diseases, 2015).

Assays:
HSP18 [1] = biological target: T1, HSP18 (Mycobacterium leprae, UniProt P12809); assay: SPR (Biacore T200, HSP18 immobilized on CM5 chip); also TNP-ATP displacement and thermal stabilization; assay type: binding
T1 construct: recombinant wild-type M. leprae HSP18

HSP18 [2] = biological target: T1, HSP18; assay: fluorescence titration, Scatchard analysis; assay type: binding
HSP18 [3] = biological target: T1, HSP18; assay: SPR (Biacore T200, HSP18 immobilized on CM5 chip); assay type: binding
[4] = biological target: the molecule itself; assay: dynamic light scattering; HSP18 0.5 mg/ml in 50 mM phosphate buffer pH 7.5, 25°C, with or without 1 mM ATP; hydrodynamic radius of the oligomers

Molecule: Nc1ncnc2c1ncn2[C@@H]1O[C@H](COP(=O)(O)OP(=O)(O)OP(=O)(O)O)[C@@H](O)[C@H]1O [ATP]
- Kd (HSP18 [1]): 590 nM

Molecule: Nc1ncnc2c1ncn2[C@@H]1O[C@H](COP(=O)(O)OP(=O)(O)OP(=O)(O)O)[C@H]2OC3(O[C@H]21)C([N+](=O)[O-])=CC(=[N+]([O-])[O-])C=C3[N+](=O)[O-] (stereo partly shown) [TNP-ATP]
- Kd (HSP18 [2]): 730 nM

Molecule: Nc1ncnc2c1ncn2[C@@H]1O[C@H](CO[P@](=O)(O)O[P@](=O)(O)O[P@@](=O)(O)S)[C@@H](O)[C@H]1O [ATP-γS]
- Kd (HSP18 [3]): 330 nM

B1: Mycobacterium leprae HSP18 (18 kDa antigen, small heat shock protein) (natural protein, UniProt P12809 1-148, looked up)
chain: MLMRTDPFRELDRFAEQVLGTSARPAVMPMDAWREGEEFVVEFDLPGIKADSLDIDIERNVVTVRAERPGVDPDREMLAAERPRGVFNRQLVLGENLDTERILASYQEGVLKLSIPVAERAKPRKISVDRGNNGHQTINKTAHEIIDA
notes: M. leprae HSP18 (18 kDa antigen), wild-type; source: recombinant wild-type, expressed and purified as described previously [5]; copies: 29
- binding result [4]: binds
